From patent US4100346A, “Certain 7(o-amino-methyl- or methylaminomethylphenyl- or cyclohexadienyl- or thienylacetamide)-3[1-carboxymethyl-(or ethyl- or propyl-)-tetrazol-5-ylthiomethyl]-3-cephem-4-carboxylic acids” (Bristol-Myers Company, priority 1976, dated 1978)
≈ marks a conversion by molar mass, not a printed value. Where two headings read alike, the source gives them in different places.

Key:
[1] = tested on: Bacteroides Fragilis; assay: Growth inhibitory activity, antibiotic dilution technique (obligate anaerobes); type: cell-based; details: 3 strains, geometric mean when applicable, read-out: Minimum inhibitory concentration
Method: Antibiotic spectrum. […] Procedures were as follows:
c. Obligate anaerobes. The assay was performed on solid medium, consisting of Brain Heart Infusion Broth (BBL) supplemented with 5% defibrinated sheep blood and 1% Ionagar (Colab). […] The plates were incubated at 37° C. for 48 hours under the oxygen-free conditions attained with a Gas-Pak (BBL) Brewer jar system.

[2] = tested on: Staphylococcus Aureus; assay: Effect of inoculum size on susceptibility of Staphylococcus aureus; type: cell-based; details: for MICB /MICA: MIC at 10^6 over MIC at 10^2 organisms; for MIC: Staphylococcus aureus, geometric means, read-out: Minimum inhibitory concentration
[3] = tested on: Escherichia coli; assay: Intramuscular treatment of systemically infected mice; type: in vivo; details: im, 3.5 h, read-out: PD50 /treatment
Text: (§1) Treatment of Systemically Infected Mice. The procedures were identical with those published previously [Leitner et al., BL-S640, a Cephalosporin With a Broad Spectrum of Antibacterial Activity: Bioavailability and Therapeutic Properties in Rodents, Antimicrob. Agents Chemother. 7:306-310, (1975)], except that:
(§2) (a) the hog gastric mucin used in infections with Staphylococcus aureus No. 2 was purchased from American Laboratories, Inc., Omaha, Neb. (lot No. 154163) and b) that the medium used to suspend all other organisms contained 3% (rather than 4%) hog gastric mucin (type 1701W, Wilson Laboratories, Inc., Park Forest South, Ill.).
(§3) *Animals were treated twice; 1 and 3.5 hours after infection.

[4] = tested on: Klebsiella pneumoniae; assay: as above; type: in vivo; details: im, 3.5 h, read-out: PD50 /treatment
Text: as §1, §2, §3

[5] = tested on: Proteus morganii; assay: as above; type: in vivo; details: Morganella morganii, im, 3.5 h, read-out: PD50 /treatment
Text: as §1, §2, §3

[6] = tested on: Proteus vulgaris; assay: as above; type: in vivo; details: im, 3.5 h, read-out: PD50 /treatment
Text: as §1, §2, §3

[7] = tested on: Providencia stuartii; assay: as above; type: in vivo; details: im, 3.5 h, read-out: PD50 /treatment
Text: as §1, §2, §3

[8] = tested on: Staphylococcus aureus; assay: as above; type: in vivo; details: im, read-out: PD50 /treatment
Text: as §1, §2
(§4) *Animals infected with penicillinase-producing staphyloccal strains (No.
(§5) and 3) were treated 0 and 2 hours after infection; the others were treate
(§6) 1 and 3.5 hours after infection.

[9] = tested on: Streptococcus pneumoniae; assay: as above; type: in vivo; details: im, 3.5 h, read-out: PD50 /treatment
Text: as §1, §2, §4, §5, §6

[10] = tested on: Streptococcus pyogenes; assay: as above; type: in vivo; details: im, 3.5 h, read-out: PD50 /treatment
Text: as §1, §2, §4, §5, §6

[11] = in vitro; type: in vitro ADME, human; details: human, serum; read-out: protein bound (converted)
[12] = tested on: Erwinia sp.; assay: Growth inhibitory activity, antibiotic dilution technique; details: read-out: Minimum inhibitory concentration
[13] = tested on: Vibrio cholerae; assay: as above; details: read-out: Minimum inhibitory concentration
[14] = tested on: Pasteurella multocida; assay: as above; details: read-out: Minimum inhibitory concentration
[15] = tested on: Listeria monocytogenes; assay: as above; details: read-out: Minimum inhibitory concentration
[16] = tested on: Haemophilus influenzae; assay: as above; details: including 9 ampicillin-resistant strains
[17] = tested on: Escherichia coli; assay: Effect of inoculum size on susceptibility of Enterobacteriaceae
[18] = tested on: Enterobacter cloacae; assay: as above
[19] = Antibiotic concentration in blood after intramuscular injection; details: mouse, im

**Q.** Which results are given for O=C(Cc1cccs1)N[C@@H]1C(=O)N2C(C(=O)[O-])=C(C[n+]3ccccc3)CS[C@H]12 [Cephaloridine]?
**A.** MIC [1]: 79 µg/mL (≈ 190 µM); MICB /MICA ([2]; Lacking penicillinase, 3 strains): 1.6; MICB /MICA ([2]; Penicillinase producer, 26 strains): 20; MIC ([2]; Lacking penicillinase, 3 strains, A, Inoculum of 10^2 organisms): 0.025 µg/mL (≈ 0.0602 µM); MIC ([2]; Lacking penicillinase, 3 strains, B, inoculum of 10^6 organisms): 0.039 µg/mL (≈ 0.0939 µM); MIC ([2]; Penicillinase producer, 26 strains, A, Inoculum of 10^2 organisms): 0.077 µg/mL (≈ 0.185 µM); MIC ([2]; Penicillinase producer, 26 strains, B, inoculum of 10^6 organisms): 1.6 µg/mL (≈ 3.85 µM); effect of cell concentration on growth inhibitory activity ([2]; penicillinase-producing strains): sharply; ED50 ([3]; Escherichia coli strain 1, challenge 2×10^5 organisms, treated 1 and 3.5 hours after infection): 2.6 mg/kg; ED50 ([3]; Escherichia coli strain 8, challenge 6×10^5 -4×10^6, treated 1 and 3.5 hours after infection): 2.2 mg/kg; ED50 ([3]; Escherichia coli strain 9, challenge 7×10^3 -2×10^4, treated 1 and 3.5 hours after infection): 13 mg/kg; ED50 ([4]; Klebsiella pneumoniae strain 1, challenge 4×10^4 -5×10^4, treated 1 and 3.5 hours after infection): 8 mg/kg; ED50 ([4]; Klebsiella pneumoniae strain 7, challenge 9×10^2 -1×10^3, treated 1 and 3.5 hours after infection): 41 mg/kg; ED50 ([5]; Proteus morganii strain 1, challenge 1×10^5 -4×10^5, treated 1 and 3.5 hours after infection): 180 mg/kg; ED50 ([5]; Proteus morganii strain 2, challenge 2×10^6 -3×10^6, treated 1 and 3.5 hours after infection): 230 mg/kg; ED50 ([6]; Proteus vulgaris strain 1, challenge 1×10^6 -2×10^6, treated 1 and 3.5 hours after infection): 6.4 mg/kg; ED50 ([6]; Proteus vulgaris strain 3, challenge 4×10^5, treated 1 and 3.5 hours after infection): 10 mg/kg; ED50 ([7]; Providencia stuartii strain 2, challenge 1×10^6 ×5×10^6, treated 1 and 3.5 hours after infection): 180 mg/kg; ED50 ([7]; Providencia stuartii strain 3, challenge 2×10^7, treated 1 and 3.5 hours after infection): 150 mg/kg; ED50 ([8]; 3.5 h, Staphylococcus aureus strain 1, challenge 2 × 10^5 - 3 × 10^5, treated 1 and 3.5 hours after infection): 0.01 mg/kg; ED50 ([8]; Staphylococcus aureus strain 2 (penicillinase-producing), challenge 1 × 10^9, treated 0 and 2 hours after infection): 3.2 mg/kg; ED50 ([8]; Staphylococcus aureus strain 3 (penicillinase-producing), challenge 5 × 10^8 - 7 × 10^9, treated 0 and 2 hours after infection): 3.3 mg/kg; ED50 ([9]; Streptococcus pneumoniae strain 1, challenge 2 × 10^3 - 9 × 10^3, treated 1 and 3.5 hours after infection): 0.1 mg/kg; ED50 ([9]; Streptococcus pneumoniae strain 2, challenge 1 × 10^4 - 3 × 10^4, treated 1 and 3.5 hours after infection): 0.26 mg/kg; ED50 ([10]; Streptococcus pyogenes strain 1, challenge 2 × 10^3 -6 × 10^3, treated 1 and 3.5 hours after infection): 0.06 mg/kg; ED50 ([10]; Streptococcus pyogenes strain 2, challenge 1 × 10^4 - 5 × 10^4, treated 1 and 3.5 hours after infection): 0.02 mg/kg; fraction unbound [11]: 0.7; MIC [12]: 2 µg/mL (≈ 4.81 µM); MIC [13]: 16 µg/mL (≈ 38.5 µM); MIC [14]: 0.5 µg/mL (≈ 1.2 µM); MIC [15]: 0.91 µg/mL (≈ 2.19 µM); relative activity against Haemophilus influenzae [16]: about equally active; MIC ([17]; read-out: Minimum Inhibitory Concentration, Escherichia coli strain 1, A, Inoculum of 10^2 organisms): 2 µg/mL (≈ 4.81 µM); MIC ([17]; read-out: Minimum Inhibitory Concentration, Escherichia coli strain 1, B, Inoculum of 10^6 organisms): 8 µg/mL (≈ 19.3 µM); MIC ([17]; read-out: Minimum Inhibitory Concentration, Escherichia coli strain 2, A, Inoculum of 10^2 organisms): 4 µg/mL (≈ 9.63 µM); MIC ([17]; read-out: Minimum Inhibitory Concentration, Escherichia coli strain 2, B, Inoculum of 10^6 organisms): 16 µg/mL (≈ 38.5 µM); MIC ([17]; read-out: Minimum Inhibitory Concentration, Escherichia coli strain 3, A, Inoculum of 10^2 organisms): 2 µg/mL (≈ 4.81 µM); MIC ([17]; read-out: Minimum Inhibitory Concentration, Escherichia coli strain 3, B, Inoculum of 10^6 organisms): 4 µg/mL (≈ 9.63 µM); MIC ([17]; read-out: Minimum Inhibitory Concentration, Escherichia coli strain 4, A, Inoculum of 10^2 organisms): 2 µg/mL (≈ 4.81 µM); MIC ([17]; read-out: Minimum Inhibitory Concentration, Escherichia coli strain 4, B, Inoculum of 10^6 organisms): 4 µg/mL (≈ 9.63 µM); MIC ([17]; read-out: Minimum Inhibitory Concentration, Escherichia coli strain 5, A, Inoculum of 10^2 organisms): 4 µg/mL (≈ 9.63 µM); MIC ([17]; read-out: Minimum Inhibitory Concentration, Escherichia coli strain 5, B, Inoculum of 10^6 organisms): 8 µg/mL (≈ 19.3 µM); MIC ([17]; read-out: Minimum Inhibitory Concentration, Escherichia coli strain 6, A, Inoculum of 10^2 organisms): 2 µg/mL (≈ 4.81 µM); MIC ([17]; read-out: Minimum Inhibitory Concentration, Escherichia coli strain 6, B, Inoculum of 10^6 organisms): 8 µg/mL (≈ 19.3 µM); MIC ([17]; read-out: Minimum Inhibitory Concentration, Escherichia coli strain 7, A, Inoculum of 10^2 organisms): 2 µg/mL (≈ 4.81 µM); MIC ([17]; read-out: Minimum Inhibitory Concentration, Escherichia coli strain 7, B, Inoculum of 10^6 organisms): 4 µg/mL (≈ 9.63 µM); MIC ([18]; read-out: Minimum Inhibitory Concentration, Enterobacter cloacae strain 1, A, Inoculum of 10^2 organisms): 4 µg/mL (≈ 9.63 µM); MIC ([18]; read-out: Minimum Inhibitory Concentration, Enterobacter cloacae strain 1, B, Inoculum of 10^6 organisms): > 250 µg/mL; MIC ([18]; read-out: Minimum Inhibitory Concentration, Enterobacter cloacae strain 2, A, Inoculum of 10^2 organisms): 125 µg/mL (≈ 301 µM); MIC ([18]; read-out: Minimum Inhibitory Concentration, Enterobacter cloacae strain 2, B, Inoculum of 10^6 organisms): > 250 µg/mL; MIC ([18]; read-out: Minimum Inhibitory Concentration, Enterobacter cloacae strain 3, A, Inoculum of 10^2 organisms): 16 µg/mL (≈ 38.5 µM); MIC ([18]; read-out: Minimum Inhibitory Concentration, Enterobacter cloacae strain 3, B, Inoculum of 10^6 organisms): 250 µg/mL (≈ 602 µM); MIC ([18]; read-out: Minimum Inhibitory Concentration, Enterobacter cloacae strain 4, A, Inoculum of 10^2 organisms): > 250 µg/mL; MIC ([18]; read-out: Minimum Inhibitory Concentration, Enterobacter cloacae strain 4, B, Inoculum of 10^6 organisms): > 250 µg/mL; MIC ([18]; read-out: Minimum Inhibitory Concentration, Enterobacter cloacae strain 5, A, Inoculum of 10^2 organisms): 63 µg/mL (≈ 152 µM); MIC ([18]; read-out: Minimum Inhibitory Concentration, Enterobacter cloacae strain 5, B, Inoculum of 10^6 organisms): > 250 µg/mL; half-life [19]: 22 min; Cmax ([19]; 20 mg/kg): 23000 ng/mL
